# Data reported in BigSolDB 2.1.
compound,measurement,setting,value
O=C(O)/C=C/c1cccc(O)c1,solubility (mole fraction),"in ethanol, 293.15 K",0.0594
same,solubility (mole fraction),"in ethanol, 298.15 K",0.0632
same,solubility (mole fraction),"in ethanol, 303.15 K",0.0687
same,solubility (mole fraction),"in ethanol, 308.15 K",0.0742
same,solubility (mole fraction),"in ethanol, 313.15 K",0.0802
same,solubility (mole fraction),"in ethanol, 318.15 K",0.087
same,solubility (mole fraction),"in ethanol, 323.15 K",0.0949
same,solubility (mole fraction),"in ethanol, 328.15 K",0.103
same,solubility (mole fraction),"in ethanol, 333.15 K",0.114
same,solubility (mole fraction),"in ethyl acetate, 293.15 K",0.0177
same,solubility (mole fraction),"in ethyl acetate, 298.15 K",0.0201
same,solubility (mole fraction),"in ethyl acetate, 303.15 K",0.0228
same,solubility (mole fraction),"in ethyl acetate, 308.15 K",0.0256
same,solubility (mole fraction),"in ethyl acetate, 313.15 K",0.0294
same,solubility (mole fraction),"in ethyl acetate, 318.15 K",0.0329
same,solubility (mole fraction),"in ethyl acetate, 323.15 K",0.0377
same,solubility (mole fraction),"in ethyl acetate, 328.15 K",0.0438
same,solubility (mole fraction),"in ethyl acetate, 333.15 K",0.0489
same,solubility (mole fraction),"in isobutanol, 293.15 K",0.0317
same,solubility (mole fraction),"in isobutanol, 298.15 K",0.0351
same,solubility (mole fraction),"in isobutanol, 303.15 K",0.0397
same,solubility (mole fraction),"in isobutanol, 308.15 K",0.0449
same,solubility (mole fraction),"in isobutanol, 313.15 K",0.0502
same,solubility (mole fraction),"in isobutanol, 318.15 K",0.0561
same,solubility (mole fraction),"in isobutanol, 323.15 K",0.0628
same,solubility (mole fraction),"in isobutanol, 328.15 K",0.0706
same,solubility (mole fraction),"in isobutanol, 333.15 K",0.0802
same,solubility (mole fraction),"in isopropanol, 293.15 K",0.0611
same,solubility (mole fraction),"in isopropanol, 298.15 K",0.0662
same,solubility (mole fraction),"in isopropanol, 303.15 K",0.0724
same,solubility (mole fraction),"in isopropanol, 308.15 K",0.0794
same,solubility (mole fraction),"in isopropanol, 313.15 K",0.0859
same,solubility (mole fraction),"in isopropanol, 318.15 K",0.0933
same,solubility (mole fraction),"in isopropanol, 323.15 K",0.101
same,solubility (mole fraction),"in isopropanol, 328.15 K",0.109
same,solubility (mole fraction),"in isopropanol, 333.15 K",0.12
same,solubility (mole fraction),"in methanol, 293.15 K",0.0516
same,solubility (mole fraction),"in methanol, 298.15 K",0.0557
same,solubility (mole fraction),"in methanol, 303.15 K",0.0611
same,solubility (mole fraction),"in methanol, 308.15 K",0.0669
same,solubility (mole fraction),"in methanol, 313.15 K",0.0731
same,solubility (mole fraction),"in methanol, 318.15 K",0.0801
same,solubility (mole fraction),"in methanol, 323.15 K",0.0887
same,solubility (mole fraction),"in methanol, 328.15 K",0.0995
same,solubility (mole fraction),"in methanol, 333.15 K",0.113
same,solubility (mole fraction),"in methyl acetate, 293.15 K",0.0189
same,solubility (mole fraction),"in methyl acetate, 298.15 K",0.0212
same,solubility (mole fraction),"in methyl acetate, 303.15 K",0.0239
same,solubility (mole fraction),"in methyl acetate, 308.15 K",0.0276
same,solubility (mole fraction),"in methyl acetate, 313.15 K",0.0315
same,solubility (mole fraction),"in methyl acetate, 318.15 K",0.0358
same,solubility (mole fraction),"in methyl acetate, 323.15 K",0.0402
same,solubility (mole fraction),"in methyl acetate, 328.15 K",0.0458
same,solubility (mole fraction),"in n-butanol, 293.15 K",0.0474
same,solubility (mole fraction),"in n-butanol, 298.15 K",0.0513
same,solubility (mole fraction),"in n-butanol, 303.15 K",0.0566
same,solubility (mole fraction),"in n-butanol, 308.15 K",0.0617
same,solubility (mole fraction),"in n-butanol, 313.15 K",0.0677
same,solubility (mole fraction),"in n-butanol, 318.15 K",0.0741
same,solubility (mole fraction),"in n-butanol, 323.15 K",0.0806
same,solubility (mole fraction),"in n-butanol, 328.15 K",0.0887
same,solubility (mole fraction),"in n-butanol, 333.15 K",0.0989
same,solubility (mole fraction),"in n-propanol, 293.15 K",0.0493
same,solubility (mole fraction),"in n-propanol, 298.15 K",0.0533
same,solubility (mole fraction),"in n-propanol, 303.15 K",0.0585
same,solubility (mole fraction),"in n-propanol, 308.15 K",0.064
same,solubility (mole fraction),"in n-propanol, 313.15 K",0.0701
same,solubility (mole fraction),"in n-propanol, 318.15 K",0.0766
same,solubility (mole fraction),"in n-propanol, 323.15 K",0.0842
same,solubility (mole fraction),"in n-propanol, 328.15 K",0.093
same,solubility (mole fraction),"in n-propanol, 333.15 K",0.104
same,solubility (mole fraction),"in n-propyl acetate, 293.15 K",0.0155
same,solubility (mole fraction),"in n-propyl acetate, 298.15 K",0.0184
same,solubility (mole fraction),"in n-propyl acetate, 303.15 K",0.0212
same,solubility (mole fraction),"in n-propyl acetate, 308.15 K",0.0236
same,solubility (mole fraction),"in n-propyl acetate, 313.15 K",0.0269
same,solubility (mole fraction),"in n-propyl acetate, 318.15 K",0.0302
same,solubility (mole fraction),"in n-propyl acetate, 323.15 K",0.035
same,solubility (mole fraction),"in n-propyl acetate, 328.15 K",0.041
same,solubility (mole fraction),"in n-propyl acetate, 333.15 K",0.0471
